What is called pEC50 is the EC50 on a negative log10 scale, so that one unit is a factor of ten. A high value points to a small EC50.

The results in this text go back to patent publication US20240309003A1, “HETEROCYCLIC COMPOUNDS AS TRIGGERING RECEPTOR EXPRESSED ON MYELOID CELLS 2 AGONISTS AND METHODS OF USE” (Vigil Neuroscience, Inc., priority 2021, published 2024).

pEC50: −log10 of the molar value. Where only a bound is given, the exact number is not on record here.

T1 sequence (Q9NZC2 19-230): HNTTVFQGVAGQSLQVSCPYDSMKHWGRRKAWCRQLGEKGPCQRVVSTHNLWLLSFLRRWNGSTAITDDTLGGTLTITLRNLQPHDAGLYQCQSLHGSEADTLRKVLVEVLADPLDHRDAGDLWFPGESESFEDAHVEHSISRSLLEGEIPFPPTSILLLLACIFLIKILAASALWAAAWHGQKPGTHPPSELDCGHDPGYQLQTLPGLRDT
T1 sequence (O43914 22-113 partner): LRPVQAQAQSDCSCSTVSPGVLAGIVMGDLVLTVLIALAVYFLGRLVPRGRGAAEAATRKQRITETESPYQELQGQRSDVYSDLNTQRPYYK

This assay addresses T1, human TREM2 (Homo sapiens, UniProt Q9NZC2).
T1 construct: expressed in transfected cells; host or cells: HEK293T
Briefly: TREM2 agonist potency by cellular phosphorylation of Syk (AlphaLisa) in HEK293T-hTREM2 cells. The class given is cell-based. Particulars: HEK293 cells expressing human TREM2 and DAP12, Table D-2. In short, it runs like this: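 Agonist EC50 from a variable-slope four-parameter fit of % activation, based on AlphaLisa phospho-Syk levels in lysates. Cells: HEK293T-hTREM2 (with DAP12), treated 45 min at room temperature with compound in assay buffer.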
On the technique in general: In Alpha technology, singlet oxygen from a donor bead excites a nearby acceptor bead.
Consider `COCn1cc([C@H]2CN(c3nc(-c4ccc(Cl)cc4F)c4nc(C)c(C)nc4n3)C[C@@H](C)O2)cn1` [Example I-1446, (2S,6R)-4-[4-(4-chloro-2-fluoro-phenyl)-6,7-dimethyl-pteridin-2-yl]-2-[1-(methoxymethyl)pyrazol-4-yl]-6-methyl-morpholine], for which the negative-log EC50 (pEC50) is over 7.30.
In the case of `Cc1nc2cc([C@H]3CCO[C@@H](c4cnn(C5CC5)c4)C3)nc(-c3ccc(F)cc3F)c2nc1CC#N` [Example I-1451, 2-(7-((2R,4S)-2-(1-cyclopropyl-1H-pyrazol-4-yl)tetrahydro-2H-pyran-4-yl)-5-(2,4-difluorophenyl)-2-methylpyrido[3,4-b]pyrazin-3-yl)acetonitrile] it was 5.52 to 6.30; in that of `Cc1nc2cc([C@H]3CCO[C@@H](c4cnn(C5CC5)c4)C3)nc(-c3ccc(F)cc3F)c2nc1CF` [Example I-1456, 7-((2R,4S)-2-(1-cyclopropyl-1H-pyrazol-4-yl)tetrahydro-2H-pyran-4-yl)-5-(2,4-difluorophenyl)-3-(fluoromethyl)-2-methylpyrido[3,4-b]pyrazine], over 7.30; in that of `Cc1nc2nc(-c3cc(-c4cnn(C5CC5)c4)c(=O)n(C)c3)nc(-c3ccc(F)cc3F)c2nc1C` [Example I-1461, 3-(1-cyclopropyl-1H-pyrazol-4-yl)-5-(4-(2,4-difluorophenyl)-6,7-dimethylpteridin-2-yl)-1-methylpyridin-2(1H)-one], 6.30 to 7.30.
As to `Cc1nc2nc(N3C[C@@H](C)O[C@@H](c4cnn(C5CC5)c4CO)C3)nc(-c3ccc(F)cc3F)c2nc1C` [Example I-1462, [2-cyclopropyl-4-[(2S,6R)-4-[4-(2,4-difluorophenyl)-6,7-dimethyl-pteridin-2-yl]-6-methyl-morpholin-2-yl]pyrazol-3-yl]methanol], the negative-log EC50 (pEC50) was 6.30 to 7.30.
As for `Cc1nc2nc(N3C[C@@H](C)O[C@@H](c4cnn(C(F)F)c4)C3)nc(-c3ccc(F)cc3F)c2nc1C` [Example I-1472, (2S,6R)-2-[1-(difluoromethyl)pyrazol-4-yl]-4-[4-(2,4-difluorophenyl)-6,7-dimethyl-pteridin-2-yl]-6-methyl-morpholine], the negative-log EC50 (pEC50) was over 7.30.
The figure for `Cc1nc2c(-c3ccc(Cl)cc3F)nc([C@H]3CCO[C@@H](c4cnn(C5CC5)c4)C3)nc2nc1CC(F)F` [Example I-1477, 4-(4-chloro-2-fluoro-phenyl)-2-[(2R,4S)-2-(1-cyclopropylpyrazol-4-yl)tetrahydropyran-4-yl]-7-(2,2-difluoroethyl)-6-methyl-pteridine] is 6.30 to 7.30; for `Cc1nc2nc(N3C[C@@H](C)O[C@@H](c4cnn(C5CC5)c4)C3)nc(-c3ccc4c(c3F)CCC4(F)F)c2nc1C` [Example I-1485, (2S,6R)-2-(1-cyclopropylpyrazol-4-yl)-4-[6,7-dimethyl-4-(1,1,4-trifluoroindan-5-yl)pteridin-2-yl]-6-methyl-morpholine] it is over 7.30; for `Cc1nc2cc([C@H]3CCO[C@@H](c4cnn(C5CC5)c4)C3)nc(-c3ccc(F)cc3F)c2nc1COC(F)F` [Example I-1490, 7-((2R,4S)-2-(1-cyclopropyl-1H-pyrazol-4-yl)tetrahydro-2H-pyran-4-yl)-3-((difluoromethoxy)methyl)-5-(2,4-difluorophenyl)-2-methylpyrido[3,4-b]pyrazine] it is 4.00 to 5.52.
In turn, `Cc1nc2cc([C@H]3CCO[C@@H](c4cnn(C5CC5)c4)C3)nc(-c3ccc(F)cc3F)c2nc1COCC1COC1` [Example I-1505, 7-((2R,4S)-2-(1-cyclopropyl-1H-pyrazol-4-yl)tetrahydro-2H-pyran-4-yl)-5-(2,4-difluorophenyl)-2-methyl-3-((oxetan-3-ylmethoxy)methyl)pyrido[3,4-b]pyrazine] gave a negative logarithm of the EC50 (pEC50) of 5.52 to 6.30.
In the case of `Cc1cc([C@H]2CN(c3nc(-c4ccc(Cl)cc4F)c4nc(C)c(C)nc4n3)CCO2)no1` [Example I-1510, (2R)-4-[4-(4-chloro-2-fluoro-phenyl)-6,7-dimethyl-pteridin-2-yl]-2-(5-methylisoxazol-3-yl)morpholine], the pEC50 is 6.30 to 7.30.
Take `Cc1cc(N2C[C@@H](c3nc(-c4ccc(F)cc4F)c4nc(C)c(C)nc4n3)CCC2=O)ccn1` [Example I-1513]: the pEC50 was 6.30 to 7.30.
Take `Cc1nc2nc(N3CCO[C@H](c4cnn5c4CCC5)C3)nc(-c3ccc(F)cc3F)c2nc1C` [Example I-1529, (2R)-4-[4-(2,4-difluorophenyl)-6,7-dimethyl-pteridin-2-yl]-2-(5,6-dihydro-4H-pyrrolo[1,2-b]pyrazol-3-yl)morpholine]: the pEC50 was 6.30 to 7.30.
The figure for `Cc1nc2nc(N3C[C@@H](C)O[C@@H](c4cnn(C5CC5)c4)C3)nc(-c3cc(F)c(C(F)(F)F)cc3F)c2nc1C` [Example I-1538, (2S,6R)-2-(1-cyclopropylpyrazol-4-yl)-4-[4-[2,5-difluoro-4-(trifluoromethyl)phenyl]-6,7-dimethyl-pteridin-2-yl]-6-methyl-morpholine] is over 7.30; for `Cc1nc2cc([C@H]3CCO[C@@H](c4cnn(C5CC5)c4)C3)nc(-c3ccc(F)cc3F)c2nc1C(F)F` [Example I-1552, 7-((2R,4S)-2-(1-cyclopropyl-1H-pyrazol-4-yl)tetrahydro-2H-pyran-4-yl)-3-(difluoromethyl)-5-(2,4-difluorophenyl)-2-methylpyrido[3,4-b]pyrazine] it is over 7.30.
The figure for `CCc1nc2c(-c3ccc(F)cc3F)nc([C@H]3CCO[C@@H](c4cnn(C5CC5)c4)C3)cc2nc1C` [Example I-1557, 7-((2R,4S)-2-(1-cyclopropyl-1H-pyrazol-4-yl)tetrahydro-2H-pyran-4-yl)-5-(2,4-difluorophenyl)-3-ethyl-2-methylpyrido[3,4-b]pyrazine] is 6.30 to 7.30; for `Cc1nc2cc([C@H]3CCO[C@@H](c4cnn(C5CC5)c4)C3)nc(-c3ccc(C(F)(F)F)cc3F)c2nc1C(F)(F)F` [Example I-1562] it is 6.30 to 7.30; for `Cc1nc2c(-c3ccc(C(F)(F)F)cc3F)cn([C@H]3CCO[C@@H](c4cnn(C5CC5)c4)C3)c(=O)c2nc1C` [Example I-1567, 6-[(2R,4S)-2-(1-cyclopropyl-1H-pyrazol-4-yl)tetrahydro-2H-pyran-4-yl]-8-[2-fluoro-4-(trifluoromethyl)phenyl]-2,3-dimethylpyrido[3,4-b]pyrazin-5(6H)-one] it is 4.00 to 5.52.
With `Cc1cc(F)c(-c2nc([C@H]3CCO[C@@H](c4cnn(C5CC5)c4)C3)nc3nc(C)c(C)nc23)cc1F` [Example I-1572, 2-[(2R,4S)-2-(1-cyclopropylpyrazol-4-yl)tetrahydropyran-4-yl]-4-(2,5-difluoro-4-methyl-phenyl)-6,7-dimethyl-pteridine], the pEC50 is over 7.30.
For the compound `Cc1nc2nc([C@H]3CCO[C@@H](c4cnn(CC5CC5)c4)C3)nc(-c3ccc(C(F)(F)F)cc3F)c2nc1C` [Example I-1577, 2-[(2R,4S)-2-[1-(cyclopropylmethyl)pyrazol-4-yl]tetrahydropyran-4-yl]-4-[2-fluoro-4-(trifluoromethyl)phenyl]-6,7-dimethyl-pteridine], the pEC50 was over 7.30.
`Cc1nc2nc(C3CCO[C@@H](c4cnn(C5CC5)c4)C3)nc(C3CC4(C3)CC(F)(F)C4)c2nc1C` (stereo partly drawn) [Example I-1582, 2-[(2R)-2-(1-cyclopropylpyrazol-4-yl)tetrahydropyran-4-yl]-4-(2,2-difluorospiro[3.3]heptan-6-yl)-6,7-dimethyl-pteridine] gave a negative logarithm of the EC50 (pEC50) of over 7.30.
With `Cc1nc2nc(C3CCO[C@@H](c4cnn(C5CC5)c4)C3)nc(-c3cc(C(F)(F)F)c(F)cc3F)c2nc1C` (stereo partly drawn) [Example I-1585, 2-((2R)-2-(1-cyclopropyl-1H-pyrazol-4-yl)tetrahydro-2H-pyran-4-yl)-4-(2,4-difluoro-5-(trifluoromethyl)phenyl)-6,7-dimethylpteridinee], the pEC50 was over 7.30.
The figure for `Cc1nc2nc([C@H]3CCO[C@@H](c4cnn(C5CC5)c4)C3)nc(-c3ccc(C(F)(F)F)cc3F)c2nc1C(F)F` [Example I-1593, 2-[(2R,4S)-2-(1-cyclopropylpyrazol-4-yl)tetrahydropyran-4-yl]-6-(difluoromethyl)-4-[2-fluoro-4-(trifluoromethyl)phenyl]-7-methyl-pteridine] is over 7.30.
As for `CN(C)C(=O)c1nc2c(-c3ccc(F)cc3F)nc(C3CCO[C@@H](c4cnn(C5CC5)c4)C3)nc2nc1C1CC1` (stereo partly drawn) [Example I-1603, 7-cyclopropyl-2-[(2R)-2-(1-cyclopropylpyrazol-4-yl)tetrahydropyran-4-yl]-4-(2,4-difluorophenyl)-N,N-dimethyl-pteridine-6-carboxamide], the pEC50 is 5.52 to 6.30.
`Cc1nc2nc(N3C[C@@H](C)O[C@@H](c4cnn(C5CC5)c4)C3)nc(-c3ccc(F)cc3F)c2nc1C(F)F` [Example I-1609, (2S,6R)-2-(1-cyclopropylpyrazol-4-yl)-4-[6-(difluoromethyl)-4-(2,4-difluorophenyl)-7-methyl-pteridin-2-yl]-6-methyl-morpholine] gave a negative-log EC50 (pEC50) of over 7.30.
On to `Cc1nc2nc(N3C[C@@H](C)O[C@@H](c4cnn(C)c4)C3)nc(-c3ccc(F)cc3F)c2nc1C` [Example I-1633], for which the negative-log EC50 (pEC50) is over 7.30.
Compound `Cc1nc2nc(N3C[C@@H](c4cnn(C5CC5)c4)O[C@@H](C(F)F)C3)nc(-c3ccc(C(F)(F)F)cc3F)c2nc1C` [Example I-1638, (2R,6R)-2-(1-cyclopropylpyrazol-4-yl)-6-(difluoromethyl)-4-[4-[2-fluoro-4-(trifluoromethyl)phenyl]-6,7-dimethyl-pteridin-2-yl]morpholine] showed a negative-log EC50 (pEC50) of over 7.30.
With `Cc1nc2nc([C@H]3CCO[C@@H](c4cnn(C56CC(C5)C6)c4)C3)nc(-c3ccc(F)cc3F)c2nc1C` [Example I-1668, 2-[(2R,4S)-2-[1-(1-bicyclo [1.1.1]pentanyl)pyrazol-4-yl]tetrahydropyran-4-yl]-4-(2,4-difluorophenyl)-6,7-dimethyl-pteridine], the negative-log EC50 (pEC50) is over 7.30.
For `Cc1nc2nc(N3C[C@@H](C4CC4)O[C@@H](c4cnn(C)c4)C3)nc(-c3ccc(F)cc3F)c2nc1C` [Example I-1673, (2R,6S)-2-cyclopropyl-4-[4-(2,4-difluorophenyl)-6,7-dimethyl-pteridin-2-yl]-6-(1-methylpyrazol-4-yl)morpholine], the pEC50 was over 7.30.
